Results reported in patent publication US4427660A, “Formyl-methionyl chemotatic peptide antibiotic conjugates useful in treating infections” (priority 1982, dated 1984).
Several values for one entry are separate records, joined by “and”; a condition that tells them apart may be missing. Equal values may be shown once. Read-outs that look alike come from different tables or passages of the source. Positions of bridges follow the written chain, without caps; N, C: chain ends. Non-standard residues stand in square brackets, D forms with d. Residues, ends and D or L forms follow the SMILES beside them. *: point of attachment. Ileψ(thiazoline)Cys = CC[C@H](C)[C@H](N)C1=N[C@H](C(=O)*)CS1; dOrn = NCCC[C@@H](N)C(=O)O; Nle = CCCC[C@H](N)C(=O)O; For = O=C*

Legend:
[1] = test system: Escherichia coli ATCC 25922; assay: Kirby-Bauer disc assay, inhibitory zone size; type: cell-based; settings: E. coli
Experimental: (§1) In these tables antimicrobial activity is expressed as inhibitory zone size as performed by the Kirby-Bauer assay.
(§2) The experiments in Tables 10-14 were performed using the following bacteria, media and experimental protocol:
(§3) The bacteria were Escherichia coli ATCC 25922 and Pseudomonas aeruginosa ATCC 27835.
(§4) The media was Trypticase soy agar (Baltimore Biological Laboratories, BBL) used as a general growth medium. Broth media was Brain heart infusion broth (BBL) for E. coli and medium 81 [trypticase soy broth without dextrose plus 1% potassium nitrate] for P. aeruginosa.
(§5) Antimicrobial susceptibility was tested on M9 medium [a glucose minimal salts medium (Miller, 1972)] solidified with 1.5% agar (Difco) for the base or 0.7% agar for overlay.
The following is the experimental protocol: Broth cultures of E. coli or P. aeruginosa were grown overnight in broth at 35° C. Cultures were diluted to visually match a 0.5 McFarland turbidity standard (Matsen and Barry, 1974); the numbers of organisms in this suspension ordinarily were .congruent.10^8 viable cells per ml. Ten microliter (ul) was inoculated into 10 ml. of 0.7% M9 agar that was melted and cooled to 46°-50° C. This was overlaid onto a 50 ml base of 1.5% M9 agar in 15 cm diameter petri dishes. The agar overlay was allowed to harden at room temperature for 30 min. Antimicrobial tests disks were placed on the surface of the agar, and the plates were incubated overnight at 35° C. Diameters of zones of inhibition of bacterial growth were measued with a vernier caliper and recorded to the nearest 0.1 mm.

[2] = test system: PMN (neutrophil) from human peripheral blood
Experimental: (§6) The neutrophil (PMN) experiments used 3μ nitrocellulose filters and the monocyte (MN) experiments used 5μ polycarbonate filters. PMNs and MNs were prepared from human peripheral blood by Ficoll-Hypaque and dextran sedimentation techniques. […] PMN experiments were incubated at 37° C. for 3 hours, MN experiments for 90 minutes. After this the filters were removed and stained and counted visually with a microscope.

[3] = test system: MN (monocyte) from human peripheral blood
Experimental: as §6

[4] = test system: Rabbit polymorphononuclear leukocytes (neutrophils); type: cell-based; settings: for times more active than f-Met-Phe-OH: chemotactic activity and lysosomal enzyme secretion-inducing activity alike
Experimental: Rabbit polymorphononuclear leukocytes (neutrophils) were obtained 12 to 14 hours after the intraperitoneal injection of 0.1 percent glycogen, as described in Becker et al (Z. Immunitaetsforsch Exp. Klin. Immunol., Volume 143, Page 466 1972). They were washed in Hanks' balanched salt solution containing 0.01 M tris (hydroxymethyl) aminomethane, pH 7.2, 1 mg/ml of glucose, and 1 mg/ml of crystalline bovine serum albumin. The Hanks' balanced salt solution was the buffer used throughout the work.
The assay employed a modified Boyden chamber as described by Becker et al, supra. […] The loaded chambers were incubated for 30 minutes at 37° C. This time interval was chosen as giving, for the particular batch of filters used, the greatest difference between the number of cells moving into the filter with no peptide in the lower compartment (background) and the maximum number of cells moving into the filter when stimulated by peptide. At the end of the incubation the filters were removed and stained and the number of cells in five high-power (400 magnification) fields (5 HPF) were counted and averaged. The results reported are the means of duplicate chambers.
The migration enhancing activities of different peptides were compared essentially as described by Schiffmann et al (J. Immunol., Volume […], Page 1830, 1975) and Showell et al (J. Immunol., Volume 116, Page 99, 1976). In measuring the relative activity of the peptides, a peptide was diluted so that each concentration was one quarter that of the next higher concentration. The concentrations of peptides were chosen on the basis of preliminary experiments to cover the range giving minimum to maximal activity. The chemotactic activity plotted against the logarithm of the molar concentration of peptide yielded a sigmoidal-shaped dose-response curve. Different peptides tested at the same time with the same cells gave curves which were parallel to each other in their linear portions and had the same maximum. The activities of the different peptides are reported as the ED50, i.e., the concentration of chemotactic factor giving 50 percent of the maximum activity.
The results are reported as the means ED50 ±SE (standard error) as determined by at least three separate experiments. In this assay, the lower the value of the ED50, the greater is the chemotactic activity.

[5] = test system: neutrophils; type: cell-based, rabbit
Experimental: The cytochalasin B was diluted from a stock solution containing 4 mg/ml in dimethyl sulphoxide. […] The mixtures were then incubated for five minutes at 37° C. (the release is completed in one minute of less under these conditions) and the tubes centrifuged at 2500 rpm (1400 g) for five minutes at 4° C.
The total concentration of enzyme was measured by lysing the cells with buffer containing 0.1 percent Triton X-100 (Beckmann Instruments, Inc., Fullerton, Calif.). […] The lactic dehydrogenase of each supernate was measured to insure that the peptides induced no release of this cytoplasmic marker.
The lysosomal enzyme-inducing activity for each peptide was obtained from the dose-response curve as its ED50, i.e., the molar concentration of peptide causing 50 percent of the maximal release of either lysozyme or β-glucuronidase. Again, the lower the value of the ED50, the greater is the lysosomal enzyme secretion-inducing activity.

[6] = test system: peritoneal neutrophils; assay: Test for true chemotaxis (Zigmond and Hirsch technique); type: cell-based, rabbit
From the text: Increased penetration of cells into or through the filter of a Boyden chamber system under the stimulus of a chemical agent is generally taken as indicating the chemotactic activity of the agent. Zigmond and Hirsch (J. Exp. Med., Volume 137, Page 387, 1973) have pointed out that the increased migration could result from a response directed by the chemical gradient, that is from chemotaxis, or from increased random locomotion or both. These authors have described a technique for determining if the movement of the cells into the filter of a Boyden chamber system under the influence of different gradients is greater than could be expected on the basis of increased rates of locomotion alone and to that extent is due to a true chemotactic response.
In testing f-Met-Leu-Phe-OH for true chemotaxis, 5×10^6 /ml of washed peritoneal neutrophils obtained twelve hours after the administration of 0.1 percent glycogen were suspended in varying concentrations of the peptide and placed in the upper compartment of a modified Boyden chamber. […] Using the micrometer of the fine adjustment of the microscope, the distance was measured from the top of the filter to the farthest plane of focus still containing two cells. This distance was determined across five fields and averaged. […] The test results were analyzed as described by Zigmond and Hirsch. […]

[7] = target: T1, surface receptor of rabbit polymorphonuclear leukocytes (Oryctolagus cuniculus, UniProt Q05394); assay: Inhibition of F-Nle-leu (3H)PHE binding to rabbit PMN
T1 construct: endogenous in cells; host or cells: rabbit polymorphonuclear leukocytes (neutrophils)
T1 sequence (Q05394 1-352): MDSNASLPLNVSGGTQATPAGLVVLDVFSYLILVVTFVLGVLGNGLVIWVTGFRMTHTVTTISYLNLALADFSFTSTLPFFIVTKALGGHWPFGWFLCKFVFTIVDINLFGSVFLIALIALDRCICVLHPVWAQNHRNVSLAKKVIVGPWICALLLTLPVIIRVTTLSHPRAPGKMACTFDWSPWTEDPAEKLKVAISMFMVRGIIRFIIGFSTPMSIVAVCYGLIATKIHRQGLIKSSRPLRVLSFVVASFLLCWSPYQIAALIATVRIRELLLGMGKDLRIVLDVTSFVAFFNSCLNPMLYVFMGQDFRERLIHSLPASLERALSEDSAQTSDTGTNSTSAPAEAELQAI

[8] = test system: leukocytes; settings: relatively weak chemoattractants; cited from earlier work
[9] = test system: human polymorphonuclear leukocytes; assay: Chemotaxis for human polymorphonuclear leukocytes; type: cell-based; settings: human PMN, FIG. 2 text and summary (Table 6)
[10] = test system: Pseudomonas aeruginsa, strain Mangalore; settings: EXPT 1-3 on separate lines
[11] = test system: 4 strains of Pseudomonas aeruginosa
Experimental: Antimicrobial activity was assayed by the MIC Technique using 4 strains of Pseudomonas aeruginosa.

[12] = test system: Pseudomonas aeruginosa ATCC 27835; assay: Kirby-Bauer disc assay, inhibitory zone size; type: cell-based; settings: P. aeruginosa; disc FML alone; 6 mm = disc, no inhibition
Experimental: as §1, §2, §3, §4, §5
The following is the experimental protocol: Broth cultures of E. coli or P. aeruginosa were grown overnight in broth at 35° C. Cultures were diluted to visually match a 0.5 McFarland turbidity standard (Matsen and Barry, 1974); the numbers of organisms in this suspension ordinarily were .congruent.10^8 viable cells per ml. Ten microliter (ul) was inoculated into 10 ml. of 0.7% M9 agar that was melted and cooled to 46°-50° C. This was overlaid onto a 50 ml base of 1.5% M9 agar in 15 cm diameter petri dishes. […] Diameters of zones of inhibition of bacterial growth were measued with a vernier caliper and recorded to the nearest 0.1 mm.

[13] = [F-Met-Leu-Phe] 10^-6, Sulfadiazine 5 μg
[14] = [F-Met-Leu-Phe] 10^-6, Sulfadiazine 50 μg
[15] = [F-Met-Leu-Phe] 10^-6, Sulfadiazine 100 μg
[16] = [F-Met-Leu-Phe] 10^-7, Sulfadiazine 5 μg
[17] = [F-Met-Leu-Phe] 10^-7, Sulfadiazine 50 μg
[18] = [F-Met-Leu-Phe] 10^-7, Sulfadiazine 100 μg
[19] = [F-Met-Leu-Phe] 10^-7, Sulfadiazine 250 μg
[20] = [F-Met-Leu] 10^-3, Sulfadiazine 5 μg
[21] = [F-Met-Leu] 10^-3, Sulfadiazine 25 μg
[22] = [F-Met-Leu] 10^-3, Sulfadiazine 50 μg
[23] = [F-Met-Leu] 10^-3, Sulfadiazine 100 μg
[24] = [F-Met-Leu] 10^-3, Sulfadiazine 250 μg
[25] = [F-Met-Leu] 10^-4, Sulfadiazine 5 μg
[26] = [F-Met-Leu] 10^-4, Sulfadiazine 25 μg
[27] = [F-Met-Leu] 10^-4, Sulfadiazine 50 μg
[28] = [F-Met-Leu] 10^-4, Sulfadiazine 100 μg
[29] = [F-Met-Leu] 10^-4, Sulfadiazine 250 μg
[30] = concentration giving 50 percent of maximum activity, mean of at least three experiments, 30 minutes at 37° C.
[31] = molar concentration causing 50 percent of maximal release, 10 μg/ml cytochalasin B, five minutes at 37° C.

Nc1ccc(S(=O)(=O)Nc2ncccn2)cc1 [Sulfadiazine, sulfadiazine]
Zone Diameter ([1]; disc 10 μg, alone): 28.0 mm | Zone Diameter ([1]; disc 25 μg, alone): 32.0 mm | % Inhibition PMN [2, 13]: 10.0% | % Inhibition PMN ([2]; [F-Met-Leu-Phe] 10^-6, Sulfadiazine 25 μg): 8.0% | % Inhibition PMN [2, 14]: 39.5% | % Inhibition PMN [2, 15]: 49.0% | % Inhibition PMN [2, 16]: 16.8% | % Inhibition PMN ([2]; [F-Met-Leu-Phe] 10^-7, Sulfadiazine 25 μg): 18.0% | % Inhibition PMN [2, 17]: 65.8% | % Inhibition PMN [2, 18]: 70.8% | % Inhibition PMN [2, 19]: 88.0% | % Inhibition PMN [2, 20]: 19.0% | % Inhibition PMN [2, 21]: 38.0% | % Inhibition PMN [2, 22]: 48.7% | % Inhibition PMN [2, 23]: 73.3% | % Inhibition PMN [2, 24]: 83.9% | % Inhibition PMN [2, 25]: 1.0% | % Inhibition PMN [2, 26]: 14.0% | % Inhibition PMN [2, 27]: 37.5% | % Inhibition PMN [2, 28]: 53.0% | % Inhibition PMN [2, 29]: 41.0% | % Inhibition MN [3, 13]: 22.5% | % Inhibition MN [3, 14]: 21.0% | % Inhibition MN [3, 15]: 82.0% | % Inhibition MN [3, 16]: 14.6% | % Inhibition MN [3, 17]: 13.7% | % Inhibition MN [3, 18]: 41.7% | % Inhibition MN [3, 19]: 96.6% | % Inhibition MN [3, 20]: 2.5% | % Inhibition MN [3, 21]: 13.0% | % Inhibition MN [3, 22]: 36.7% | % Inhibition MN [3, 23]: 43.3% | % Inhibition MN [3, 24]: 98.0% | % Inhibition MN [3, 25]: 20.0% | % Inhibition MN [3, 26]: 17.5% | % Inhibition MN [3, 27]: 17.0% | % Inhibition MN [3, 28]: 60.0% | % Inhibition MN [3, 29]: 97.5%

CSCC[C@H](NC=O)C(=O)N[C@@H](CC(C)C)C(=O)N[C@@H](Cc1ccccc1)C(=O)N[C@@H](CCCCN)C(=O)O [f--Met--Leu--Phe--Lys--OH] (For-MLFK-OH)
Chemotactic Activity ED50 ± SE [4]: 7.0 ± 1.0 × 10^-10 M | times more active than f-Met-Phe-OH [4]: 500 times | ED50 ± SE B-Glucoronidase [5]: 1.9 ± 0.3 × 10^-9 M | ED50 ± SE Lysosyme [5]: 1.7 ± 0.5 × 10^-9 M

CSCC[C@H](NC(=O)[C@H](CCSC)NC(=O)[C@H](CCSC)NC(=O)[C@H](CCSC)NC=O)C(=O)O [f--Met--Met--Met--Met--OH] (For-MMMM-OH)
Chemotactic Activity ED50 ± SE [4]: 3.0 ± 0.13 × 10^-10 M | ED50 ± SE B-Glucoronidase [5]: 3.0 ± 0.73 × 10^-9 M | ED50 ± SE Lysosyme [5]: 2.4 ± 0.34 × 10^-9 M

CSCC[C@H](NC=O)C(=O)N[C@@H](CC(C)C)C(=O)N[C@@H](Cc1ccccc1)C(=O)O [FMLP, formyl-methionyl-leucyl-phenylalanine]
times more active than f-Met-Phe-OH [4]: 5,000 times | Chemotactic Activity ED50 ± SE [4, 30]: 7.0 ± 1.7 × 10^-11 M | ED50 ± SE B-Glucoronidase [5, 31]: 2.6 ± 0.32 × 10^-10 M | ED50 ± SE Lysosyme [5, 31]: 2.4 ± 0.31 × 10^-10 M | distance cells moved farther than predicted ([6]; positive gradient (peptide below greater than above the filter)): greater than 10 μm | true chemotaxis (experimental vs predicted values) ([6]; sixty minutes at 37° C., 3.0 μm pore size filter): truly chemotactic | IC50 [7]: 0.5 nM

CSCC[C@H](NC=O)C(=O)N[C@@H](Cc1ccccc1)C(=O)O [f--Met--Phe--OH] (For-Met-Phe-OH)
Chemotactic Activity ED50 ± SE [4, 30]: 4.1 ± 0.95 × 10^-7 M | ED50 ± SE B-Glucoronidase [5]: 2.0 ± 0.42 × 10^-6 M | ED50 ± SE Lysosyme [5, 31]: 1.5 ± 0.39 × 10^-6 M

CSCC[C@H](NC=O)C(=O)N[C@@H](CCSC)C(=O)N[C@@H](Cc1ccccc1)C(=O)O [f--Met--Met--Phe--OH] (For-Met-Met-Phe-OH)
Chemotactic Activity ED50 ± SE [4, 30]: 2.1 ± 0.49 × 10^-10 M | ED50 ± SE B-Glucoronidase [5]: 1.8 ± 0.24 × 10^-9 M | ED50 ± SE Lysosyme [5]: 1.9 ± 0.4 × 10^-9 M

CC[C@H](C)[C@H](N)C1=N[C@H](C(=O)N[C@@H](CC(C)C)C(=O)N[C@H](CCC(=O)O)C(=O)N[C@H](C(=O)N[C@H]2CCCCNC(=O)[C@H](CC(N)=O)NC(=O)[C@@H](CC(=O)O)NC(=O)[C@H](Cc3cnc[nH]3)NC(=O)[C@@H](Cc3ccccc3)NC(=O)[C@H]([C@@H](C)CC)NC(=O)[C@@H](CCCN)NC2=O)[C@@H](C)CC)CS1 [bacitracin] ({Ileψ(thiazoline)Cys}-L[dE]IK[dOrn]I[dF]H[dD]N; lactam 4-C)
chemoattractant concentration [8]: 10^-5 to 10^-6 M

formyl-Met-Leu-phe-silver sulfadiazine [FMLP-AgSDZ]
ED50, M concentration giving 50% max activity [9]: 96 nM | ED50, M concentration giving 50% max activity ([9]; listed as FMLP--AgSDZ): 78 nM | ID50, molar concentration which displaced 50% of a labeled attractant from the cell receptor ([7]; F-Nle-leu (3H)PHE, rabbit PMN): 2 nM | MIC at 24h [10]: 40 μg/m and 80 μg/m | concentration at which all strains were inhibited (MIC Technique) [11]: 80 μm/ml

CSCC[C@H](NC=O)C(=O)N[C@@H](CC(C)C)C(=O)O [f--Met--Leu--OH] (For-Met-Leu-OH)
Chemotactic Activity ED50 ± SE [4, 30]: 4.0 ± 0.45 × 10^-7 M | ED50 ± SE Lysosyme [5, 31]: 1.7 ± 0.17 × 10^-6 M | Zone Diameter ([1]; disc FML alone, 6 mm = disc, no inhibition): 6.0 mm | Zone Diameter [12]: 6.0 mm

gramicidin
chemoattractant concentration [8]: 10^-5 to 10^-6 M

CCCC[C@H](NC=O)C(=O)N[C@@H](CC(C)C)C(=O)N[C@@H](Cc1ccccc1)C(=O)O [f--Nle--Leu--Phe--OH] (For-[Nle]-Leu-Phe-OH)
Chemotactic Activity ED50 ± SE [4]: 6.6 ± 1.2 × 10^-10 M | ED50 ± SE B-Glucoronidase [5]: 1.9 ± 0.2 × 10^-9 M | ED50 ± SE Lysosyme [5]: 1.5 ± 0.2 × 10^-9 M

tyrocidin
chemoattractant concentration [8]: 10^-5 to 10^-6 M

CSCC[C@H](NC=O)C(=O)N[C@@H](Cc1ccccc1)C(=O)N[C@@H](CC(C)C)C(=O)O [f-Met-Phe-Leu-OH] (For-Met-Phe-Leu-OH)
times less active than f-Met-Leu-Phe-OH ([4]; chemotactic and lysosomal enzyme secretion-inducing activities): 500 times
